According to patent publication US20230134843A1, “TREATMENT OF STEM CELL DEFICIENCY” (OSPEDALE SAN RAFFAELE S.R.L., priority 2020, published 2023):

System: CD45+ cells
Assay: CD45+ inflammatory cell infiltration by immunohistochemistry, acute GVHD mouse model
Format: in vivo, mice
Details: Fosaprepitant 10 mg/mL topically six times a day, day 29
Method: 10-week-old male BALB/C and C57BL/6N mice (Charles River Laboratory, Lecco, Italy) were used for all the experiments (n=5/each group). All mice were free from ocular surface disease at baseline. The housing conditions were controlled (temperature 22° C., light from 07:00-19:00, humidity 50%-60%), and fresh food and water were freely available. The animals were monitored 3 times per week for 28 days post-transplantation for in vivo slit-lamp microscopy imaging, ocular surface score and systemic GVHD score (FIG. 11A). Carbon dioxide inhalation and subsequent cervical dislocation were applied to euthanize the animals. All the experiments were approved by the Animal Care and Use Committee of the IRCCS San Raffaele Scientific Institute, in accordance with the ARVO Statement for the Use of Animals in Ophthalmic and Vision Research.
Allogenic BMT was conducted using the C57BL/6N and BALB/c mice as transplant donors and recipients, respectively. The recipient mice received total body irradiation (TBI) (900 cGy divided in two fractions) from a Cs source 1 day before the transplantation. The donor C57BL/6N mice were sacrificed on dry ice and they femur and spleen were harvested. The bones were gently crushed manually using a sterile stick, and bone marrow (BM) cells were released by mixing the fragments of bones with RPMI. The suspension of BM cells was filtered to remove the impurities inside. The spleens were also gently crushed into a cell suspension and filtered. Inventors suspended the BM cells and splenic cells with RPMI and adjusted the density of cells to 1×10^6/[…] and 2×10^6/[…], respectively. […]
Mice were sacrificed 28 days after BM transplantation (Day 29 post irradiation) by carbon dioxide inhalation. […] Following three washes with PBS-T, sections were incubated in anti-goat HRP for 15 minutes and then detected with a goat-on-rodent HRP-Polymer Kit (Biocare Medical). Primary antibody labeling was detected using brown DAB substrate (Vector Laboratories, Burlingame, Calif., USA). […]

Question: What does the source list for C[C@@H](O[C@H]1OCCN(Cc2nc(=O)n(P(=O)(O)O)[nH]2)[C@H]1c1ccc(F)cc1)c1cc(C(F)(F)F)cc(C(F)(F)F)c1 [Fosaprepitant, [3-{[(2R,3S)-2-[(1R)-1-[3,5-bis(trifluoromethyl)phenyl]ethoxy]-3-(4-fluorophenyl)morpholin-4-yl]methyl}-5-oxo-2H-1,2,4-triazol-1-yl]phosphonic acid]?
Answer: CD45+ cell infiltration in the lacrimal gland (among all groups): no significant difference; CD45+ cell infiltration in the conjunctiva (p<0.0001): significantly reduced; CD45+ cell infiltration in the cornea (p<0.01): significantly reduced
